In PubChem BioAssay (NCI) one finds TGI and GI50 data, which are given here for 19 molecules.

Some test systems named below: NCI-H522 lung; SNB-75 CNS; NCI-H226 lung; LOX IMVI melanoma; SNB-19 CNS; CAKI-1 renal; ACHN renal; SK-OV-3 ovarian; MCF7 breast; SK-MEL-2 melanoma.
Assay in all cases: DTP human tumour cell line panel, 48 h

Molecules are shown by their SMILES.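 Step 1: Grow cells in 96-well plates. Step 2: Expose to compound for 48 hours at 5 concentrations. Step 3: Interpolate endpoints linearly; if unreached, use highest concentration. GI50 = concentration required for 50% inhibition of growth. Definition used: TGI = concentration required for complete inhibition of growth.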 Where a SMILES comes first, the peptide text is derived from it. [ ]: non-standard residue; d: D form. The star is where a group is joined. AllylGly = C=CC[CH](N)C(=O)O; Boc = CC(C)(C)OC(=O)*; OtBu = CC(C)(C)O*

`Clc1ccc(Oc2ccc(N=Cc3ccc(Cl)cc3Cl)cc2Cl)cc1`: the TGI was 92 µM with NCI-H522 lung; 87.4 µM in the assay with SNB-75 CNS; greater than 100 µM in the assay on NCI-H226 lung; greater than 100 µM in the assay with LOX IMVI melanoma; greater than 100 µM in the assay with SNB-19 CNS; greater than 100 µM in the assay on CAKI-1 renal. Further, the TGI with ACHN renal, in the assay with SK-OV-3 ovarian, in the assay with MCF7 breast and in the assay with SK-MEL-2 melanoma was greater than 100 µM in each case.
With `COc1ccc(N=C(C)c2ccncc2)cc1`, the TGI in the assay on NCI-H522 lung, with SNB-75 CNS, with NCI-H226 lung, in the assay with LOX IMVI melanoma, in the assay on SNB-19 CNS and in the assay with CAKI-1 renal was greater than 100 µM each time. For the same molecule, the total growth inhibition concentration (TGI) with ACHN renal, in the assay on SK-OV-3 ovarian, in the assay with MCF7 breast and in the assay with SK-MEL-2 melanoma was greater than 100 µM each time.
On to `COCC1CCCN1c1ccc(/C=C(/C#N)C(N)=S)cc1` (stereo not given), for which the GI50 in the assay with NCI-H522 lung was 12.7 µM; with SNB-75 CNS it was 90.7 µM; in the assay with NCI-H226 lung it was 34.6 µM; in the assay with LOX IMVI melanoma it was greater than 100 µM; in the assay with SNB-19 CNS, greater than 100 µM; in the assay on CAKI-1 renal it was greater than 100 µM. The GI50 with ACHN renal is greater than 100 µM; in the assay on SK-OV-3 ovarian, greater than 100 µM; with MCF7 breast it was 69.4 µM; with SK-MEL-2 melanoma it was greater than 100 µM. Moreover, the TGI in the assay on NCI-H522 lung is 61.4 µM; in the assay on SNB-75 CNS it was greater than 100 µM; with NCI-H226 lung, greater than 100 µM; with LOX IMVI melanoma, greater than 100 µM; in the assay on SNB-19 CNS it was greater than 100 µM; with CAKI-1 renal, greater than 100 µM. Also, the TGI with ACHN renal, in the assay with SK-OV-3 ovarian, in the assay with MCF7 breast and with SK-MEL-2 melanoma was greater than 100 µM in each case.
For the molecule `COc1ccc(/C=C2\C[C@H]3[C@@H]4CCC5=C[C@@H](N6CCCC6)CC[C@]5(C)[C@H]4CC[C@]3(C)[C@H]2O)cc1`, the total growth inhibition concentration (TGI) in the assay with NCI-H522 lung is 7.36 µM; in the assay with SNB-75 CNS, 14.5 µM; in the assay on NCI-H226 lung, 10.9 µM; in the assay on LOX IMVI melanoma it was 3.61 µM; in the assay with SNB-19 CNS, 16.1 µM; in the assay with CAKI-1 renal, 14.6 µM. Besides, the TGI is 11.7 µM in the assay with ACHN renal, 14.8 µM with SK-OV-3 ovarian, 5.84 µM with MCF7 breast and 3.6 µM in the assay with SK-MEL-2 melanoma.
As for `CCOC(=O)CCC(NC(=O)c1ccc(Oc2nc3ccc(C(F)(F)F)cc3nc2-c2ccccc2)cc1)C(=O)OCC` (stereo not given), the concentration for total growth inhibition (TGI) in the assay on NCI-H522 lung was greater than 100 µM; with SNB-75 CNS it was 29.1 µM; in the assay on NCI-H226 lung, 17.6 µM; with LOX IMVI melanoma it was greater than 100 µM; with SNB-19 CNS, greater than 100 µM; with CAKI-1 renal it was 26.9 µM. Also, the TGI with ACHN renal was greater than 100 µM; in the assay with SK-OV-3 ovarian, 37.9 µM; in the assay on MCF7 breast it was greater than 100 µM; in the assay with SK-MEL-2 melanoma it was greater than 65.8 µM.
For the molecule `O=c1[nH]c(Nc2cccc(C(F)(F)F)c2)nc2nc[nH]c12`, the TGI in the assay with NCI-H522 lung, in the assay on SNB-75 CNS, with NCI-H226 lung, with LOX IMVI melanoma, in the assay with SNB-19 CNS and in the assay on CAKI-1 renal was greater than 100 µM each time. Moreover, the TGI in the assay with ACHN renal, with SK-OV-3 ovarian, in the assay on MCF7 breast and in the assay on SK-MEL-2 melanoma was greater than 100 µM in each case.
For `CCCCCNc1nonc1N`, the concentration for total growth inhibition (TGI) in the assay on NCI-H522 lung, in the assay with SNB-75 CNS, in the assay on NCI-H226 lung, with LOX IMVI melanoma, in the assay with SNB-19 CNS and with CAKI-1 renal was greater than 100 µM in each case. Also, the TGI with ACHN renal, with SK-OV-3 ovarian, in the assay on MCF7 breast and in the assay on SK-MEL-2 melanoma was greater than 100 µM throughout.
On to `C=CCC(NC(=O)C(CC(=O)OC(C)(C)C)NC(=O)OC(C)(C)C)C(=O)OC` (stereo not given) (Boc-Asp(OtBu)-[AllylGly]-OMe; configuration not given here), for which the TGI in the assay on NCI-H522 lung was greater than 100 µM; in the assay with SNB-75 CNS, greater than 100 µM; in the assay on NCI-H226 lung it was greater than 100 µM; with LOX IMVI melanoma, 41.7 µM; in the assay on SNB-19 CNS, greater than 100 µM; in the assay with CAKI-1 renal it was greater than 100 µM. Moreover, the TGI with ACHN renal, in the assay with SK-OV-3 ovarian, in the assay on MCF7 breast and with SK-MEL-2 melanoma was greater than 100 µM each time.
In the case of `CCCCCCOc1ccc(C(=O)NOCc2ccccc2)cc1`, the TGI with NCI-H522 lung, in the assay with SNB-75 CNS, in the assay with NCI-H226 lung, with LOX IMVI melanoma, in the assay with SNB-19 CNS and in the assay with CAKI-1 renal was greater than 100 µM each time. Also, the TGI in the assay on ACHN renal, with SK-OV-3 ovarian, in the assay with MCF7 breast and in the assay with SK-MEL-2 melanoma was greater than 100 µM in each case.
For the molecule `Cn1c(=O)cc(NCc2ccc(Cl)cc2)[nH]c1=O`, the TGI with NCI-H522 lung is greater than 100 µM; in the assay on SNB-75 CNS it was 84.5 µM; in the assay on NCI-H226 lung it was greater than 100 µM; with LOX IMVI melanoma, greater than 100 µM; in the assay with SNB-19 CNS it was greater than 100 µM; with CAKI-1 renal, greater than 100 µM. Also, the TGI in the assay on ACHN renal, in the assay on SK-OV-3 ovarian, in the assay on MCF7 breast and with SK-MEL-2 melanoma was greater than 100 µM throughout.
Take `O=C(NNC(=S)Nc1ccccc1)c1ccccc1Nc1ccccc1C(=O)NNC(=S)Nc1ccccc1`: the TGI in the assay on NCI-H522 lung was 46 µM; in the assay with SNB-75 CNS, greater than 100 µM; with NCI-H226 lung it was 77.9 µM; with LOX IMVI melanoma it was 26 µM; in the assay with SNB-19 CNS it was 72.4 µM; in the assay on CAKI-1 renal, greater than 100 µM. Besides, the TGI is greater than 100 µM with ACHN renal, 89.8 µM with SK-OV-3 ovarian, 83.8 µM in the assay with MCF7 breast and 47.1 µM in the assay with SK-MEL-2 melanoma.
For the molecule `O=C/C(=C(/Br)I)c1ccccc1`, the TGI in the assay on NCI-H522 lung was 3.41 µM; with SNB-75 CNS, 18.7 µM; in the assay on NCI-H226 lung it was 26 µM; in the assay with LOX IMVI melanoma, 10.9 µM; in the assay on SNB-19 CNS it was 31.4 µM; with CAKI-1 renal, 4.15 µM. Besides, the TGI in the assay with ACHN renal was found to be 9.63 µM; with SK-OV-3 ovarian, 23.2 µM; in the assay on MCF7 breast it was 2.57 µM; with SK-MEL-2 melanoma it was 13.5 µM.
Regarding `Cc1ccc(-c2c(C#N)c(S)n(NS(=O)(=O)c3ccc(C)cc3)c(=O)c2C#N)cc1`, the TGI with NCI-H522 lung was 48.1 µM; with SNB-75 CNS it was 37.4 µM; in the assay with NCI-H226 lung, 39.6 µM; in the assay on LOX IMVI melanoma it was greater than 100 µM; in the assay with SNB-19 CNS, 52.1 µM; in the assay on CAKI-1 renal, 74.3 µM. Besides, the total growth inhibition concentration (TGI) with ACHN renal is 49.8 µM; in the assay on SK-OV-3 ovarian, greater than 100 µM; with MCF7 breast it was greater than 100 µM; in the assay on SK-MEL-2 melanoma, 62.2 µM.
On to `O=C1/C(=C\c2cccc(Oc3ccccc3)c2)S(=O)(=O)C(c2ccccc2)N1c1ccc(Cl)cc1` (stereo not given), for which the TGI in the assay on NCI-H522 lung is 29.5 µM; in the assay on SNB-75 CNS it was greater than 100 µM; in the assay with NCI-H226 lung, greater than 100 µM; in the assay on LOX IMVI melanoma, 27.8 µM; in the assay with SNB-19 CNS, 55.9 µM; in the assay with CAKI-1 renal it was 84.2 µM. Moreover, the TGI in the assay on ACHN renal is 36.9 µM; in the assay with SK-OV-3 ovarian it was greater than 100 µM; in the assay with MCF7 breast, 62.9 µM; in the assay on SK-MEL-2 melanoma, 34.5 µM.
Regarding `CC1=C2c3c(C)ccc4ccc(C)c(c34)C2(O)C(C)C1=O` (stereo not given), the TGI in the assay on NCI-H522 lung, in the assay with SNB-75 CNS, in the assay on NCI-H226 lung, in the assay on LOX IMVI melanoma, in the assay on SNB-19 CNS and in the assay on CAKI-1 renal was greater than 100 µM in each case. Besides, the TGI with ACHN renal, with SK-OV-3 ovarian, in the assay on MCF7 breast and in the assay on SK-MEL-2 melanoma was greater than 100 µM each time.
Consider `CC(C)(C)N(Cc1ccc2c(c1)OCO2)C(=O)/C=C\S(=O)c1ccccc1` (stereo not given), for which the total growth inhibition concentration (TGI) was determined as 2.14 µM in the assay on NCI-H522 lung; 15.1 µM in the assay with SNB-75 CNS; 11.2 µM in the assay with NCI-H226 lung; 7.51 µM with LOX IMVI melanoma; 20.7 µM in the assay on SNB-19 CNS; 15.1 µM with CAKI-1 renal. Moreover, the TGI worked out at 15.2 µM in the assay on ACHN renal, 9.38 µM with SK-OV-3 ovarian, 14.2 µM with MCF7 breast and 9.11 µM in the assay on SK-MEL-2 melanoma.
On to `CON(C)C(C#N)=C(C#N)C#N`, for which the TGI in the assay on NCI-H522 lung, in the assay with SNB-75 CNS, with NCI-H226 lung, with LOX IMVI melanoma, with SNB-19 CNS and in the assay with CAKI-1 renal was greater than 10 µM in each case. For the same molecule, the TGI in the assay on ACHN renal, with SK-OV-3 ovarian, with MCF7 breast and in the assay with SK-MEL-2 melanoma was greater than 10 µM throughout.
On to `CN1CN(c2ccccc2)C2(CCN(CCCSc3ccccc3NC(=O)/C=C/c3ccccc3)CC2)C1=O`, for which the TGI in the assay with NCI-H522 lung was 62.4 µM; with SNB-75 CNS, 22.8 µM; with NCI-H226 lung, 5.56 µM; with LOX IMVI melanoma it was 4.61 µM; in the assay on SNB-19 CNS, 25.1 µM; with CAKI-1 renal it was greater than 26.5 µM. Moreover, the TGI was 9.81 µM in the assay on ACHN renal, greater than 42.3 µM in the assay with SK-OV-3 ovarian, greater than 49.8 µM in the assay on MCF7 breast and 6.12 µM in the assay on SK-MEL-2 melanoma.
For `CC1(c2nc3cc(Cl)c(Cl)cc3[nH]2)CCC(CO)C(C)(C)O1` (stereo not given), the TGI is 30.3 µM in the assay on NCI-H522 lung; 66.9 µM in the assay with SNB-75 CNS; 56.6 µM with NCI-H226 lung; greater than 100 µM in the assay with LOX IMVI melanoma; greater than 100 µM in the assay with SNB-19 CNS; greater than 100 µM in the assay with CAKI-1 renal. The TGI in the assay with ACHN renal is greater than 100 µM; in the assay on SK-OV-3 ovarian, greater than 100 µM; in the assay with MCF7 breast it was greater than 100 µM; in the assay with SK-MEL-2 melanoma it was 90.4 µM.

For orientation: TGI means the concentration giving total growth inhibition. As usually defined, the GI50 is the concentration at which growth is held to half of that of the control.
